Key:
A/WSN/33 virus = experiment: multicycle growth assay, viral titres by plaques assay in MDCK cells; assay type: cell-based, influenza A H1N1 (A/WSN/33); conditions: MDCK cells infected with A/WSN/33 at 0.001 MOI
Description: FIG. 3 is a plot of the antiviral activity of an aggregation-inducing agent nucleozin in multicycle growth assays. Madin-Darby Canine Kidney (MDCK) cells were infected with A/WSN/33 virus at 0.001 MOI in the presence or absence of nucleozin (0.1 or 1 μM). Viral titres were determined by plaques assay at the time indicated.

nucleoproteins [1] = target: T1, nucleoproteins (Influenza A virus, UniProt P03466); experiment: cell-based aggregation assay (immunofluorescence microscopy)
T1 sequence (P03466 whole entry): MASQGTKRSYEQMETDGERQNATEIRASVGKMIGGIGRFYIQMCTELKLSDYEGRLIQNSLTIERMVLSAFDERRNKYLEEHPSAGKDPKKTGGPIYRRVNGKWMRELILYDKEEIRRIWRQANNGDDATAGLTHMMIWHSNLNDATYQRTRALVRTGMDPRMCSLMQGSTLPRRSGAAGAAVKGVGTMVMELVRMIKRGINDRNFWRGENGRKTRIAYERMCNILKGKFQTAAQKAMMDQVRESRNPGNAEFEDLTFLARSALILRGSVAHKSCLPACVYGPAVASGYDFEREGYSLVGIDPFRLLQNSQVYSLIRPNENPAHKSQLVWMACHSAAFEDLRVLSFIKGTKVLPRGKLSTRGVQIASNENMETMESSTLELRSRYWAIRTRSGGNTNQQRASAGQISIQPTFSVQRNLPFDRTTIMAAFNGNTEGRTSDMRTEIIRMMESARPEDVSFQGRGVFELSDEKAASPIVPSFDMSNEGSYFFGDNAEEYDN
Excerpt: A cell-based method for identifying compounds that promote aggregation includes:
a.) treating cells with one or more test compounds for a period of time;
b.) adding a fixing solution to stop protein translation;
c.) treating the cells with a fluorescent antibody that binds specifically to a protein, glycoprotein, or protein-nucleic acid complex;
d.) determining the presence or absence of aggregation,
wherein if aggregation is present in (d), the test compound is identified as a compound that may promote aggregation.
1. 25 μl of culture medium is added into each well of a 384-well plate followed by the addition of a test compound from a chemical library in each well. Then 25 μl of cells (6×10^3 cells/well) with undesirable physiological conditions in DMEM with 10% fetal bovine serum are seeded into each assay well. Plates are incubated at 37° C. in a 5% CO2 humid atmosphere for 1 day.
2. The supernatant is removed from each well, and washed with 50 μl of phosphate-buffered saline (PBS).
3. The PBS is aspirated off and 50 μl of a cold (4° C.) fixing solution of 3.65% formaldehyde in PBS was added to each well. The plate was incubated for 1 h at 4° C.
4. The fixing solution was aspirated off and 50 μl of 0.1% Nonidet P-40 solution in PBS was added to each well. […]
8. The aggregation of proteins, glycoproteins, or protein-nucleic acid complexes is detected by immunofluorescence microscopy.

nucleoproteins [2] = target: T1, nucleoproteins; experiment: cell-free aggregation assay (aggregation plate reader); assay type: biochemical
Description: A cell-free method for identifying compounds that promote aggregation of proteins, glycoproteins, or protein-nucleic acid complexes includes:
a.) combining a mixture of bovine serum albumin and one or more proteins, glycoproteins, or protein-nucleic acid complexes;
b.) adding the mixture of (a) to a multi-well plate;
c.) transferring a test compound to one or more wells of the multi-well plate;
d.) incubating the plate of (c); and
e.) determining the presence of aggregation,
wherein if aggregation is present in (e), the test compound is identified as a compound that may promote aggregation.
1. A mixture of 1 μM proteins, glycoproteins, or protein-nucleic acid complexes in 40 μg/ml bovine serum albumin is prepared.
2. A portion (20 μl) of the reaction mixture is added to each well of a 384-well mircotitre plate using automated liquid dispenser.
3. Chemicals from a chemical library are assayed by transferring approximately 100 nl to each assay well by a 384 solid pin array.
4. The plates are incubated at 37° C. for 6 hours and the extent of chemical induced aggregation is recorded by an aggregation plate reader.

[3] = system: A/Vietnam/1194/04 H5N1 virus; assay type: in vivo, BALB/c female mice
nucleoprotein [4] = assay type: biochemical
nucleoprotein [5] = target: nucleoprotein (Influenza A virus, UniProt P15682); experiment: cellular immunofluorescence microscopy in infected A549 cells; assay type: cell-based, influenza A/WSN/33 virus
Sequence of nucleoprotein (Influenza A virus, UniProt P15682) (P15682 whole entry): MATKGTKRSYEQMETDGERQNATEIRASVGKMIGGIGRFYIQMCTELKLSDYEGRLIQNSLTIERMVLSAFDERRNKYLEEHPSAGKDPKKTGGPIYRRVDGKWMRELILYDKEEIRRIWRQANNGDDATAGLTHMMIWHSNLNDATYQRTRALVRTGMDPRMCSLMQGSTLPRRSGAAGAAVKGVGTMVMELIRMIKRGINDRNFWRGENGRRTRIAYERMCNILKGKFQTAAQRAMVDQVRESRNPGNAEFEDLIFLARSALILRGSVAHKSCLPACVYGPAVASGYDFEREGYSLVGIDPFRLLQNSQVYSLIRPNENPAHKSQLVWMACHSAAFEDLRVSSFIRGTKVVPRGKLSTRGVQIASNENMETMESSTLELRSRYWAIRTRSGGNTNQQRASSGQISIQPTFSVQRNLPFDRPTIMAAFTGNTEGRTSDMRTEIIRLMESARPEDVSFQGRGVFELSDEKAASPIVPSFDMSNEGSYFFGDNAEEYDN

How did the “viral growth (viral titres)” value (A/WSN/33 virus; nucleozin 0.1 μM) turn out when nucleozin was run?
Its value is “suppressed viral growth”.

What about the “virus production (viral titres)” value (A/WSN/33 virus; nucleozin at 1 (unit cut off in the text)) of the same substance?
The value was “completely inhibited virus production”.

What about the aggregation of nucleoproteins (nucleoproteins [1]) of the same substance?
Its aggregation of nucleoproteins is “aggregation of nucleoproteins was observed”.

What about the aggregation of nucleoproteins (nucleoproteins [2]) of the same substance?
The aggregation of nucleoproteins was “aggregation of nucleoproteins was observed”.

What about the “survival rate versus untreated controls” value ([3]; mice after inoculation by influenza A virus H5N1 strain A/Vietnam/1194/04) of the same substance?
Its value is “significantly higher survival rate”.

What about the “animals surviving for more than 21 days” value ([3]; mice, two doses of nucleozin (250 nmole per dose) per day i.p. for 5 days, H5N1 A/Vietnam/1194/04 i.n.) of the same substance?
Its value is 90%.

And the “amount of nucleoprotein running into the native gradient gel” value (nucleoprotein [4])?
Its value is “reduces the amount of nucleoprotein running into the native gradient gel in a dose-dependent manner”.

What about the “nucleoprotein-RNA complex that runs into the 4-12% polyacrylamide gradient gel” value (nucleoprotein [4]) of the same substance?
The value was “dose-dependent reduction”.

And the “nucleoprotein localisation at 3 hours post infection” value (nucleoprotein [5]; influenza A/WSN/33, 3 hours post infection)?
Its value is ““halo” of dense nucleoprotein aggregates surrounding the perinuclear region in the cytoplasm”.

And the “nucleoprotein localisation at 24 hours after infection” value (nucleoprotein [5]; influenza A/WSN/33, 24 hours after infection)?
Its value is “nucleoprotein trapped in the cytoplasm was seen scattered randomly in host cells”.

What about the “nucleoprotein accumulation in the nucleus” value (nucleoprotein [5]; influenza A/WSN/33 virus infection) of the same substance?
The value was “potent antagonist of nucleoprotein accumulation in the nucleus”.
